Experimental data: article PMC10714399, “Open Source Antibiotics: Simple Diarylimidazoles Are Potent against Methicillin-Resistant Staphylococcus aureus” (ACS Infectious Diseases, 2023)
In brackets after ≈: the same amount, converted by molar mass.

These compounds were tested on S. aureus ATCC 25923 (methicillin-susceptible) (assay: In vitro antibacterial activity, MIC (UCL), MSSA). Details: Staphylococcus aureus; UCL assay; read-out: MSSA MIC (ug/mL) (UCL).
Type: cell-based, Staphylococcus aureus
Method: (§1) Staphylococcus aureus NCTC 13373 (mecA-positive; methicillin-resistant, NCTC 13373) was supplied by the National Collection of Type Cultures (NCTC), Public Health England, United Kingdom. Other organisms, S. aureus ATCC 25923 (methicillin-susceptible) and Enterococcus faecalis ATCC 51299 (vanA-positive; vancomycin-resistant), were obtained from the American Type Culture Collection (ATCC) via LGC Standards, UK. A suspension of each organism was prepared from an overnight plate culture (tryptone soya agar) in phosphate-buffered saline (PBS) and adjusted to an absorbance reading at 600 nm of 0.1, which is approximately equivalent to 1 × 10^8 colony-forming units (CFU) per mL. The cultures were further diluted 1:100 in isosensitest broth (Oxoid, United Kingdom) before 100 μL was used to inoculate each well of a 96-well plate that contained diluted samples of the OSA series. Compounds were evaluated over a 2-fold dilution range from 32 to 0.03 μg/mL. Stocks of the samples were prepared in 100% DMSO at […] before being diluted in isosenstitest broth. The highest concentration of DMSO present was 2%, which has been previously shown not to inhibit the growth of the microorganisms (data not shown). […] Vancomycin was used as a quality control compound.

| MIC [µg/mL] | Compound |
| --- | --- |
| > 32 | Cc1ccc2nc(-c3ccccc3)c(CNc3cccc(C(F)(F)F)c3)n2c1 [OSA_001028] |
| 8 (≈ 18.3 µM) | CCCCN(Cc1c(-c2ccccc2)nc2ccc(C)cn12)c1cccc(C(F)(F)F)c1 [OSA_001029] |
| > 32 | Cc1ccn2cc(-c3ccccn3)nc2c1 [OSA_001030] |
| > 32 | Cc1ccn2c(CNc3ccc(F)cc3)c(-c3ccccn3)nc2c1 [OSA_001031] |
| 32 (≈ 82.4 µM) | CCCCN(Cc1c(-c2ccccn2)nc2cc(C)ccn12)c1ccc(F)cc1 [OSA_001032] |
| > 32 | Cc1ccn2c(CN(CC(C)C)c3cccc(C(F)(F)F)c3)c(-c3ccccn3)nc2c1 [OSA_001033] |
| 16 (≈ 48.6 µM) | FC(F)(F)c1ccc(-c2c(-c3ccccn3)nc3n2CCC3)cc1 [OSA_001052] |
| > 32 | Fc1ccc(-c2c(-c3ccccn3)nc3n2CCC3)cc1 [OSA_001053] |
| > 32 | c1ccc(-c2nc3n(c2-c2ccncc2)CCC3)nc1 [OSA_001072] |
| > 32 | Fc1cc(-c2c(-c3ccccn3)nc3n2CCC3)ccn1 [OSA_001073] |
| > 32 | Nc1ccc(-c2c(-c3ccccn3)nc3n2CCC3)cc1 [OSA_001074] |
| > 32 | N#Cc1ccc(-c2c(-c3ccccn3)nc3n2CCC3)cn1 [OSA_001075] |
| > 32 | COc1cc(-c2c(-c3ccccn3)nc3n2CCC3)ccc1C#N [OSA_001076] |
| > 32 | N#Cc1ccc(-c2c(-c3ccccn3)nc3n2CCC3)cc1C(F)(F)F [OSA_001077] |

Same assay, conditions: Staphylococcus aureus; read-out: MSSA MIC

| MIC [µg/mL] | Compound |
| --- | --- |
| > 32 | Fc1ccc(NCc2c(-c3ccccn3)nc3ccccn23)cc1 [compound 1019] |
| > 32 | CC(=O)N(c1ccc(F)cc1)c1c(-c2ccccn2)nc2ccccn12 [compound 1021] |
| 16 (≈ 48.6 µM) | FC(F)(F)c1ccc(-c2c(-c3ccccn3)nc3n2CCC3)cc1 [compound 1052] |

Each compound was assayed on Staphylococcus aureus NCTC 13373 (mecA-positive; methicillin-resistant) (assay: In vitro antibacterial activity, MIC (UCL School of Pharmacy assay), MRSA). Details: not given.
Type: cell-based
Method: as §1

| MRSA MIC [µg/mL] | Compound |
| --- | --- |
| 32 | Fc1ccc(NCc2c(-c3ccccn3)nc3ccccn23)cc1 [compound 1019] |
| 32 | CC(=O)N(c1ccc(F)cc1)c1c(-c2ccccn2)nc2ccccn12 [compound 1021] |

Same assay, conditions: Staphylococcus aureus; UCL assay; read-out: MRSA MIC (ug/mL) (UCL)

| MIC [µg/mL] | Compound |
| --- | --- |
| > 32 | Cc1ccc2nc(-c3ccccc3)c(CNc3cccc(C(F)(F)F)c3)n2c1 [OSA_001028] |
| 8 (≈ 18.3 µM) | CCCCN(Cc1c(-c2ccccc2)nc2ccc(C)cn12)c1cccc(C(F)(F)F)c1 [OSA_001029] |
| > 32 | Cc1ccn2cc(-c3ccccn3)nc2c1 [OSA_001030] |
| > 32 | Cc1ccn2c(CNc3ccc(F)cc3)c(-c3ccccn3)nc2c1 [OSA_001031] |
| 32 (≈ 82.4 µM) | CCCCN(Cc1c(-c2ccccn2)nc2cc(C)ccn12)c1ccc(F)cc1 [OSA_001032] |
| > 32 | Cc1ccn2c(CN(CC(C)C)c3cccc(C(F)(F)F)c3)c(-c3ccccn3)nc2c1 [OSA_001033] |
| 16 (≈ 48.6 µM) | FC(F)(F)c1ccc(-c2c(-c3ccccn3)nc3n2CCC3)cc1 [OSA_001052] |
| > 32 | Fc1ccc(-c2c(-c3ccccn3)nc3n2CCC3)cc1 [OSA_001053] |
| > 32 | c1ccc(-c2nc3n(c2-c2ccncc2)CCC3)nc1 [OSA_001072] |
| > 32 | Fc1cc(-c2c(-c3ccccn3)nc3n2CCC3)ccn1 [OSA_001073] |
| > 32 | Nc1ccc(-c2c(-c3ccccn3)nc3n2CCC3)cc1 [OSA_001074] |
| > 32 | N#Cc1ccc(-c2c(-c3ccccn3)nc3n2CCC3)cn1 [OSA_001075] |
| > 32 | COc1cc(-c2c(-c3ccccn3)nc3n2CCC3)ccc1C#N [OSA_001076] |
| > 32 | N#Cc1ccc(-c2c(-c3ccccn3)nc3n2CCC3)cc1C(F)(F)F [OSA_001077] |

Same assay, conditions: Staphylococcus aureus; read-out: MRSA MIC

| MIC [µg/mL] | Compound |
| --- | --- |
| > 32 | Fc1ccc(NCc2c(-c3ccccn3)nc3ccccn23)cc1 [compound 1019] |
| > 32 | CC(=O)N(c1ccc(F)cc1)c1c(-c2ccccn2)nc2ccccn12 [compound 1021] |
| 16 (≈ 48.6 µM) | FC(F)(F)c1ccc(-c2c(-c3ccccn3)nc3n2CCC3)cc1 [compound 1052] |

The compounds below were run on MRC-5SV2 (human lung fibroblast cell line) (assay: Toxicity against MRC-5SV2). Details: not given.
Type: cell-based
Method: (§2) ADME and toxicity for compounds were measured according to procedures outlined in the manuscript submitted in parallel to this one;2 other procedures were used for those compounds analysed by Monash University (in vitro ADME) or UCL (toxicity), both described in the main

| Compound | MRC5 TC50 [µg/mL] |
| --- | --- |
| Fc1ccc(NCc2c(-c3ccccn3)nc3ccccn23)cc1 [compound 1019] | 20.4 |
| CC(=O)N(c1ccc(F)cc1)c1c(-c2ccccn2)nc2ccccn12 [compound 1021] | 22.2 |
| FC(F)(F)c1ccc(-c2c(-c3ccccn3)nc3n2CCC3)cc1 [compound 1052] | 2.7 |

Same assay, conditions: MRC5 cells

| Compound | MRC5 TC50 [µM] |
| --- | --- |
| Cc1ccc2nc(-c3ccccc3)c(CNc3cccc(C(F)(F)F)c3)n2c1 [OSA_001028] | 64 |
| CCCCN(Cc1c(-c2ccccc2)nc2ccc(C)cn12)c1cccc(C(F)(F)F)c1 [OSA_001029] | 1.19 |
| Cc1ccn2cc(-c3ccccn3)nc2c1 [OSA_001030] | 22.11 |
| Cc1ccn2c(CNc3ccc(F)cc3)c(-c3ccccn3)nc2c1 [OSA_001031] | 64 |
| CCCCN(Cc1c(-c2ccccn2)nc2cc(C)ccn12)c1ccc(F)cc1 [OSA_001032] | 16 |
| Cc1ccn2c(CN(CC(C)C)c3cccc(C(F)(F)F)c3)c(-c3ccccn3)nc2c1 [OSA_001033] | 9.78 |
| FC(F)(F)c1ccc(-c2c(-c3ccccn3)nc3n2CCC3)cc1 [OSA_001052] | 8.17 |
| Fc1ccc(-c2c(-c3ccccn3)nc3n2CCC3)cc1 [OSA_001053] | 7.55 |
| c1ccc(-c2nc3n(c2-c2ccncc2)CCC3)nc1 [OSA_001072] | 64 |
| Fc1cc(-c2c(-c3ccccn3)nc3n2CCC3)ccn1 [OSA_001073] | 30.55 |
| Nc1ccc(-c2c(-c3ccccn3)nc3n2CCC3)cc1 [OSA_001074] | 5.73 |
| N#Cc1ccc(-c2c(-c3ccccn3)nc3n2CCC3)cn1 [OSA_001075] | 64 |
| COc1cc(-c2c(-c3ccccn3)nc3n2CCC3)ccc1C#N [OSA_001076] | 27.86 |
| N#Cc1ccc(-c2c(-c3ccccn3)nc3n2CCC3)cc1C(F)(F)F [OSA_001077] | 64 |

The compounds below were run on PMM (primary mouse macrophages) (assay: Toxicity against PMM). Details: not given.
Type: cell-based
Method: as §2

| Compound | PMM TC50 [µg/mL] |
| --- | --- |
| Fc1ccc(NCc2c(-c3ccccn3)nc3ccccn23)cc1 [compound 1019] | 20.4 |
| CC(=O)N(c1ccc(F)cc1)c1c(-c2ccccn2)nc2ccccn12 [compound 1021] | 22.2 |
| FC(F)(F)c1ccc(-c2c(-c3ccccn3)nc3n2CCC3)cc1 [compound 1052] | 10.5 |

Same assay, conditions: PMM

| Compound | PMM TC50 [µM] |
| --- | --- |
| Cc1ccc2nc(-c3ccccc3)c(CNc3cccc(C(F)(F)F)c3)n2c1 [OSA_001028] | 64 |
| CCCCN(Cc1c(-c2ccccc2)nc2ccc(C)cn12)c1cccc(C(F)(F)F)c1 [OSA_001029] | 8 |
| Cc1ccn2cc(-c3ccccn3)nc2c1 [OSA_001030] | 64 |
| Cc1ccn2c(CNc3ccc(F)cc3)c(-c3ccccn3)nc2c1 [OSA_001031] | 64 |
| CCCCN(Cc1c(-c2ccccn2)nc2cc(C)ccn12)c1ccc(F)cc1 [OSA_001032] | 32 |
| Cc1ccn2c(CN(CC(C)C)c3cccc(C(F)(F)F)c3)c(-c3ccccn3)nc2c1 [OSA_001033] | 32 |
| FC(F)(F)c1ccc(-c2c(-c3ccccn3)nc3n2CCC3)cc1 [OSA_001052] | 32 |
| Fc1ccc(-c2c(-c3ccccn3)nc3n2CCC3)cc1 [OSA_001053] | 32 |
| c1ccc(-c2nc3n(c2-c2ccncc2)CCC3)nc1 [OSA_001072] | 64 |
| Fc1cc(-c2c(-c3ccccn3)nc3n2CCC3)ccn1 [OSA_001073] | 32 |
| Nc1ccc(-c2c(-c3ccccn3)nc3n2CCC3)cc1 [OSA_001074] | 8 |
| N#Cc1ccc(-c2c(-c3ccccn3)nc3n2CCC3)cn1 [OSA_001075] | 64 |
| COc1cc(-c2c(-c3ccccn3)nc3n2CCC3)ccc1C#N [OSA_001076] | 64 |
| N#Cc1ccc(-c2c(-c3ccccn3)nc3n2CCC3)cc1C(F)(F)F [OSA_001077] | 64 |
